From EP3002287B1, “Thiochromeno[2,3-c]quinolin-12-one derivatives and their use as topoisomerase inhibitors” (National Defense Medical Center, priority 2014, dated 2016)

What was measured:
SF-268 = experiment: NCI in vitro 60-cell drug screen (SRB assay); format: cell-based; conditions: SF-268 (CNS cancer); 10^-5 molar concentration; 48 hours
BT-549 = experiment: NCI in vitro 60-cell drug screen (SRB assay); format: cell-based; conditions: BT-549 (Breast cancer); 10^-5 molar concentration; 48 hours
NCI-H23 = experiment: NCI in vitro 60-cell drug screen (SRB assay); format: cell-based; conditions: NCI-H23 (Non-small cell lung cancer); 10^-5 molar concentration; 48 hours
CAKI-1 = experiment: NCI in vitro 60-cell drug screen (SRB assay); format: cell-based; conditions: CAKI-1 (Renal cancer); 10^-5 molar concentration; 48 hours
PC-3 [1] = experiment: NCI in vitro 60-cell drug screen (SRB assay); format: cell-based; conditions: PC-3 (Prostate cancer); 10^-5 molar concentration; 48 hours
SW-620 = experiment: NCI in vitro 60-cell drug screen (SRB assay); format: cell-based; conditions: SW-620 (Colon cancer); 10^-5 molar concentration; 48 hours
SK-MEL-5 = experiment: NCI in vitro 60-cell drug screen (SRB assay); format: cell-based; conditions: SK-MEL-5 (Melanoma); 10^-5 molar concentration; 48 hours
UO-31 = experiment: NCI in vitro 60-cell drug screen (SRB assay); format: cell-based; conditions: UO-31 (Renal cancer); 10^-5 molar concentration; 48 hours
NCI-H226 = experiment: NCI in vitro 60-cell drug screen (SRB assay); format: cell-based; conditions: NCI-H226 (Non-small cell lung cancer); 10^-5 molar concentration; 48 hours
HOP-92 = experiment: NCI in vitro 60-cell drug screen (SRB assay); format: cell-based; conditions: HOP-92 (Non-small cell lung cancer); 10^-5 molar concentration; 48 hours
T-47D = experiment: NCI in vitro 60-cell drug screen (SRB assay); format: cell-based; conditions: T-47D (Breast cancer); 10^-5 molar concentration; 48 hours
DU-145 [2] = experiment: NCI in vitro 60-cell drug screen (SRB assay); format: cell-based; conditions: DU-145 (Prostate cancer); 10^-5 molar concentration; 48 hours
HT29 = experiment: NCI in vitro 60-cell drug screen (SRB assay); format: cell-based; conditions: HT29 (Colon cancer); 10^-5 molar concentration; 48 hours
COLO 205 = experiment: NCI in vitro 60-cell drug screen (SRB assay); format: cell-based; conditions: COLO 205 (Colon cancer); 10^-5 molar concentration; 48 hours
SK-MEL-28 = experiment: NCI in vitro 60-cell drug screen (SRB assay); format: cell-based; conditions: SK-MEL-28 (Melanoma); 10^-5 molar concentration; 48 hours
SK-OV-3 = experiment: NCI in vitro 60-cell drug screen (SRB assay); format: cell-based; conditions: SK-OV-3 (Ovarian cancer); 10^-5 molar concentration; 48 hours
DU-145 [3] = experiment: MTT assay for cell cytotoxicity; format: cell-based, human; conditions: Homo sapiens, 72 h, at least three independent experiments, read-out: MTT assay (IC50 ± SD) DU-145
Method in brief: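 Seeded cells pre-incubated 24 h, then treated 72 h with 0.15–15 µM compound in RPMI-1640/5% FBS at 37 °C. MTT (1 mg/mL) added for 4 h, formazan dissolved in DMSO, absorbance at 560 nm; IC50 from mean of ≥3 independent experiments.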

PC-3 [4] = experiment: MTT assay for cell cytotoxicity; format: cell-based, human; conditions: Homo sapiens, 72 h, at least three independent experiments, read-out: MTT assay (IC50 ± SD) PC-3
HL-60(TB) = experiment: NCI in vitro 60-cell drug screen (SRB assay); format: cell-based; conditions: HL-60(TB) (Leukemia); 10^-5 molar concentration; 48 hours
IGROV1 = experiment: NCI in vitro 60-cell drug screen (SRB assay); format: cell-based; conditions: IGROV1 (Ovarian cancer); 10^-5 molar concentration; 48 hours
NCI/ADR-RES = experiment: NCI in vitro 60-cell drug screen (SRB assay); format: cell-based; conditions: NCI/ADR-RES (Ovarian cancer); 10^-5 molar concentration; 48 hours
TK-10 = experiment: NCI in vitro 60-cell drug screen (SRB assay); format: cell-based; conditions: TK-10 (Renal cancer); 10^-5 molar concentration; 48 hours
SF-295 = experiment: NCI in vitro 60-cell drug screen (SRB assay); format: cell-based; conditions: SF-295 (CNS cancer); 10^-5 molar concentration; 48 hours
OVCAR-3 = experiment: NCI in vitro 60-cell drug screen (SRB assay); format: cell-based; conditions: OVCAR-3 (Ovarian cancer); 10^-5 molar concentration; 48 hours
KM12 = experiment: NCI in vitro 60-cell drug screen (SRB assay); format: cell-based; conditions: KM12 (Colon cancer); 10^-5 molar concentration; 48 hours
MDA-MB-435 = experiment: NCI in vitro 60-cell drug screen (SRB assay); format: cell-based; conditions: MDA-MB-435 (Melanoma); 10^-5 molar concentration; 48 hours
RPMI-8226 = experiment: NCI in vitro 60-cell drug screen (SRB assay); format: cell-based; conditions: RPMI-8226 (Leukemia); 10^-5 molar concentration; 48 hours
HCC-2998 = experiment: NCI in vitro 60-cell drug screen (SRB assay); format: cell-based; conditions: HCC-2998 (Colon cancer); 10^-5 molar concentration; 48 hours

O=c1c2cc(Cl)ccc2sc2c(N3CCN(CCO)CC3)nc3ccccc3c12 [Compound 10, 10-Chloro-6-(4-(2-hydroxyethyl)piperazin-1-yl)-12H-thiochrom eno[2,3-c]quinolin-12one] showed a Growth percent (SF-268) of 87.80%, a Growth percent (BT-549) of 90.05% and a Growth percent (NCI-H23) of 84.75%. For the same molecule, the Growth percent (CAKI-1) was 87.87%, the Growth percent (PC-3 [1]) was 77.99% and the Growth percent (SW-620) was 88.11%. The Growth percent (SK-MEL-5) was 94.13%, the Growth percent (UO-31) was 42.34% and the Growth percent (NCI-H226) was 89.29%. It also gave a Growth percent (HOP-92) of 39.64%, a Growth percent (T-47D) of 87.22% and a Growth percent (DU-145 [2]) of 96.26%. The Growth percent (HT29) was 63.19%, the Growth percent (COLO 205) was 88.90% and the Growth percent (SK-MEL-28) was 100.66%. The Growth percent (SK-OV-3) was 95.12%, the IC50 (DU-145 [3]) was over 15 µM and the IC50 (PC-3 [4]) was over 15 µM. The Growth percent (HL-60(TB)) was 93.81%, the Growth percent (IGROV1) was 71.67% and the Growth percent (NCI/ADR-RES) was 92.05%. The Growth percent (TK-10) was 93.19%, the Growth percent (SF-295) was 100.32% and the Growth percent (OVCAR-3) was 93.92%. It also gave a Growth percent (KM12) of 101.86%, a Growth percent (MDA-MB-435) of 98.24% and a Growth percent (RPMI-8226) of 84.87%. For the same molecule, the Growth percent (HCC-2998) was 103.49%.
Molecule O=c1c2ccc(Cl)cc2sc2c(Cl)nc3ccccc3c12 [Compound 3, 6,9-Dichloro-12H-thiochromeno[2,3-c]quinolin-12-one] has a Growth percent (SF-268) of 109.60%, a Growth percent (BT-549) of 110.01% and a Growth percent (NCI-H23) of 85.12%. For the same molecule, the Growth percent (CAKI-1) was 94.31%, the Growth percent (PC-3 [1]) was 91.59% and the Growth percent (SW-620) was 99.06%. It also gave a Growth percent (SK-MEL-5) of 97.42%, a Growth percent (UO-31) of 66.06% and a Growth percent (NCI-H226) of 83.41%. It also gave a Growth percent (HOP-92) of 90.83%, a Growth percent (T-47D) of 110.10% and a Growth percent (DU-145 [2]) of 114.27%. It also gave a Growth percent (HT29) of 99.73%, a Growth percent (COLO 205) of 112.15% and a Growth percent (SK-MEL-28) of 101.80%. It also gave a Growth percent (SK-OV-3) of 101.32%, an IC50 (DU-145 [3]) of over 15 µM and an IC50 (PC-3 [4]) of over 15 µM. The Growth percent (HL-60(TB)) was 99.34%, the Growth percent (IGROV1) was 96.06% and the Growth percent (NCI/ADR-RES) was 102.80%. For the same molecule, the Growth percent (TK-10) was 108.56%, the Growth percent (SF-295) was 90.26% and the Growth percent (OVCAR-3) was 111.27%. It also gave a Growth percent (KM12) of 111.27%, a Growth percent (MDA-MB-435) of 100.64% and a Growth percent (RPMI-8226) of 100.19%. The Growth percent (HCC-2998) was 123.28%.
Work on CN1CCN(c2nc3ccccc3c3c(=O)c4cc(Cl)ccc4sc23)CC1 [Compound 8, 10-Chloro-6-(4-methylpiperazin-1-yl)-12H-thiochromeno[2,3-c]q uinolin-12-one] yielded a Growth percent (SF-268) of 82.98%, a Growth percent (BT-549) of 96.25% and a Growth percent (NCI-H23) of 81.11%. It also gave a Growth percent (CAKI-1) of 87.50%, a Growth percent (PC-3 [1]) of 84.81% and a Growth percent (SW-620) of 95.50%. The Growth percent (SK-MEL-5) was 99.54%, the Growth percent (UO-31) was 48.97% and the Growth percent (NCI-H226) was 85.67%. The Growth percent (HOP-92) was 17.97%, the Growth percent (T-47D) was 82.24% and the Growth percent (DU-145 [2]) was 103.45%. The Growth percent (HT29) was 78.65%, the Growth percent (COLO 205) was 90.06% and the Growth percent (SK-MEL-28) was 107.92%. The Growth percent (SK-OV-3) was 75.11%, the IC50 (DU-145 [3]) was 12.9 ± 0.26 µM and the IC50 (PC-3 [4]) was 7.18 ± 2.45 µM. The Growth percent (HL-60(TB)) was 96.19%, the Growth percent (IGROV1) was 80.08% and the Growth percent (NCI/ADR-RES) was 81.35%. For the same molecule, the Growth percent (TK-10) was 97.07%, the Growth percent (SF-295) was 91.69% and the Growth percent (OVCAR-3) was 89.13%. The Growth percent (KM12) was 110.71%, the Growth percent (MDA-MB-435) was 105.80% and the Growth percent (RPMI-8226) was 91.11%. For the same molecule, the Growth percent (HCC-2998) was 96.87%.
Work on O=c1c2cc(Cl)ccc2sc2c(N3CCN(Cc4ccccc4)CC3)nc3ccccc3c12 [Compound 11, 6-(4-Benzylpiperazin-1-yl)-10-chloro-12H-thiochromeno[2,3-c]q uinolin-12-one] yielded a Growth percent (SF-268) of 100.42%, a Growth percent (BT-549) of 114.05% and a Growth percent (NCI-H23) of 89.94%. For the same molecule, the Growth percent (CAKI-1) was 94.03%, the Growth percent (PC-3 [1]) was 89.12% and the Growth percent (SW-620) was 93.08%. The Growth percent (SK-MEL-5) was 98.38%, the Growth percent (UO-31) was 64.91% and the Growth percent (NCI-H226) was 88.98%. It also gave a Growth percent (HOP-92) of 70.17%, a Growth percent (T-47D) of 89.22% and a Growth percent (DU-145 [2]) of 111.61%. For the same molecule, the Growth percent (HT29) was 102.71%, the Growth percent (COLO 205) was 105.64% and the Growth percent (SK-MEL-28) was 104.19%. For the same molecule, the Growth percent (SK-OV-3) was 94.79%, the IC50 (DU-145 [3]) was over 15 µM and the IC50 (PC-3 [4]) was over 15 µM. It also gave a Growth percent (HL-60(TB)) of 100.96%, a Growth percent (IGROV1) of 93.49% and a Growth percent (NCI/ADR-RES) of 98.31%. The Growth percent (TK-10) was 124.99%, the Growth percent (SF-295) was 94.34% and the Growth percent (OVCAR-3) was 101.69%. The Growth percent (KM12) was 107.75%, the Growth percent (MDA-MB-435) was 96.99% and the Growth percent (RPMI-8226) was 96.63%. It also gave a Growth percent (HCC-2998) of 99.32%.
